Source: patent publication US6028116A, “Substituted condensation products of 1H-indenyl-hydroxyalkanes with aldehydes for neoplasia” (Cell Pathways, Inc., priority 1998, dated 2000)
Like-named read-outs stand apart in the source and are kept apart here.

Experiments:
[1] = system: HT-29 human colon carcinoma cells; experiment: Apoptosis, morphology of apoptotic cells by fluorescent microscopy (acridine orange / ethidium bromide); format: cell-based
Protocol: Apoptosis was measured using an assay of cell death based on morphological characteristics of apoptotic cells (i.e., condensed chromatin). Drug preparation and cell culture conditions were the same as for the SRB assay described above, except that HT-29 human colon carcinoma cells were used. Confluent cultures were established in 12.5 cm^2 flasks by plating 0.5×10^6 cells/flask. The cultures were assayed for apoptosis by fluorescent microscopy following labeling with acridine orange and ethidium bromide. Floating and attached cells were collected by trypsinization and washed three times in PBS. One ml aliquots were centrifuged (3 g). The pellet was resuspended in 25 μl media and 1 μl of a dye mixture containing 100 μg/ml acridine orange and 100 μg/ml ethidium bromide prepared in PBS and mixed gently. Ten μl of the mixture were placed on a microscope slide and covered with a 22 mm^2 coverslip, which was examined with 40× dry objectives under epillumination by filter combination.
An observer blinded in regard to the identity of the samples scored at least 100 cells per sample. Apoptotic cells were identified by nuclear condensation of chromatin stained by the acridine orange or ethidium bromide.

[2] = target: T1, purified cyclooxygenase Type I (COX-I) (Ovis aries, UniProt P05979); experiment: Cyclooxygenase Type I (COX-I) inhibition; format: biochemical, ram; conditions: arachidonic acid 100 μM, 2.0 min at 37° C.
T1 construct: The COX-I was purified from ram seminal vesicles; from tissue; host or cells: ram seminal vesicles
T1 sequence (P05979 25-600): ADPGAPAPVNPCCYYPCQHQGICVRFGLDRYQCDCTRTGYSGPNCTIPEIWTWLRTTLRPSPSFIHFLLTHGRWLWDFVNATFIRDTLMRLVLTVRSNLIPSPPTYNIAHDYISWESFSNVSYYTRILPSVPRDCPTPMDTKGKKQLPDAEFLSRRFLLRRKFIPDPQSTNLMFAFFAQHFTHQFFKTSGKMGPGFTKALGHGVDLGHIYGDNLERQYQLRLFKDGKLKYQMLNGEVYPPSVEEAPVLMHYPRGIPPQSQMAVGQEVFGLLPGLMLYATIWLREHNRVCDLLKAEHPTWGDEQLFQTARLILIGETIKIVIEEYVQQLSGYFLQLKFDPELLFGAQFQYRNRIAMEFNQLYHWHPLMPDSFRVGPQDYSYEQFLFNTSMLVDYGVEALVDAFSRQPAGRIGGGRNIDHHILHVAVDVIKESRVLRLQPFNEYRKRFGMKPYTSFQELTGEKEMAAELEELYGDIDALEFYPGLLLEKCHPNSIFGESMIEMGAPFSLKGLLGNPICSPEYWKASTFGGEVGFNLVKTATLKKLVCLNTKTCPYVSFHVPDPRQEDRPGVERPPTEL
Protocol: COX-I catalyzes the formation of prostaglandins and thromboxane by the oxidative metabolism of arachidonic acid.
Briefly, purified COX-I was incubated with arachidonic acid (100 μM) for 2.0 min at 37° C. in the presence or absence of test compounds. The assay was terminated by the addition of TCA, and COX-I activity was determined by absorbance at 530 nm.

[3] = system: SW-480 colon adenocarcinoma cells; experiment: Growth (% vehicle) in dose response of the DNA fragmentation test; format: cell-based; conditions: Homo sapiens, SW480, 48 h
Protocol: (§1) Apoptosis was also measured based on the amount of fragmented DNA contained in cell lysates. Briefly, SW-480 colon adenocarcinoma cells were plated in 96-well microtitre plates ("MTP") at a density of 10K cells/well in 180 μl and were incubated for 24 hrs. Cells were then treated with 20 μl aliquots of appropriately diluted compound, and allowed to incubate for an additional 48 hrs.
(§2) In addition, using the DNA fragmentation test above, dose responses for the compounds of Example 8 and 9 were obtained.

[4] = system: human colon carcinoma cell line, SW-480; experiment: Growth inhibition, Sulforhodamine B (SRB) protein binding assay; format: cell-based; conditions: for inhibition at 100 µM: SW480, 144 h, SW-480, six days
Protocol: The compounds of Examples #1, #8, and #9 were assayed for their growth inhibitory activity on the human colon carcinoma cell line, SW-480 obtained from ATCC (Rockville, Md.), to ascertain the degree of growth inhibition. Growth inhibition of this cell line is indicative of a benefit on precancerous lesions and neoplasms. The cell line and growth assay employed for such experiments are well characterized, and are used to evaluate the anti-neoplastic properties of compounds. The assay is used by the United States National Cancer Institute in its screening program for new anti-cancer drugs.
Drug stock solutions were made in 100% DMSO and were then diluted with RPMI media for cell culture testing. All drug solutions were prepared fresh on the day of testing. The cultured cells were obtained at passage #99 and grown in RPMI media supplemented with 5% fetal calf serum, and 2 mM glutamine, 100 U/ml penicillin, […] streptomycin, and 0.25 μg/ml amphotericin. The cultures were maintained in a humidified atmosphere of 95% air and 5% CO2 at 37° C. The cultures were passaged at preconfluent densities using a solution of 0.05% trypsin and 0.53 mM EDTA. Cells were plated at 1000 cells/well for 96 well flat-bottom microtiter plates.
Tumor cell growth inhibition was assessed using the Sulforhodamine B (SRB) protein binding assay. […] For each plate, 6 wells were designated as no treatment controls, six wells as vehicle (0.1% DMSO) controls, and the remaining wells for drug dilutions with three wells per drug. At the end of the exposure period, the cells were fixed and stained with sulforhodamine B, a protein binding dye. The dye was then solubilized, and the optical density of the resulting solution was determined on a 96-well plate reader. The mean dye intensity of the treated wells was then divided by the mean dye intensity in the control wells (6 wells of each) to determine the effect of the drug on the cells. Dye intensity is proportional to the number of cells or amount of protein per well. The resultant "percent inhibition" value then represents the degree of growth inhibition caused by the drug.
In addition, a dose response for growth inhibition was determined for the compound of Example 9, and an IC50 value was determined. This value is equivalent to the concentration of drug needed to inhibit tumor cell growth by 50%. […] Each experiment included at least three wells per drug concentration. Concentration was plotted on a log scale on the X-axis.

[5] = system: SW-480 colon adenocarcinoma cells; experiment: Apoptosis, DNA fragmentation (Cell Death Detection ELISA plus); format: cell-based, human; conditions: for EC50: SW-480, by data analysis software or estimated from effective concentration range
Protocol: as §1
After the incubation, samples were prepared according to the following steps. The MTP was centrifuged (15 min., 1000 rpm) and the supernatant was carefully removed by fast inversion of the MTP. The cell pellets in each well were resuspended in 200 μl lysis buffer and incubated for 45 min. at room temperature to lyse the cells. The lysates were then centrifuged (15 min., 1000 rpm) and 20 μl aliquots of the supernatant (=cytoplasmicfraction) were transferred into the streptavidin-coated MTP for analysis. Care was taken not to shake the lysed pellets in the MTP (=cell nucleii containing high molecular weight, unfragmented DNA). Samples were analyzed immediately, because storage at 4° C. or -20° C. reduces the ELISA-signals.
Samples were then processed according to a DNA fragmentation assay protocol, and dose-response curves were generated based on optical density readings. Quantification of DNA was done by a commercially available photometric enzyme-immunoassay manufactured by Mannheim-Boehringer under the name "Cell Death Detection ELISA ^plus ". The assay is based on a quantitative sandwich-enzyme-immunoassay-principle using mouse monoclonal antibodies directed against DNA and histones, respectively. This allows the specific determination of mono and oligonucleosomes in the cytoplasmatic fraction of cell lysates. In brief, the assay procedure is as follows. The sample (cell-lysate, serum, culture-supematant etc.) is placed into a streptavidin-coated MTP. Subsequently, a mixture of anti-histone-biotin and anti-DNA-POD is followed by incubation for 2 hours. During the incubation period, the anti-histone antibody binds to the histone-component of the nucleosomes and simultaneously fixes the immunocomplex to the streptavidin-coated MTP via its biotinylation. Additionally, the anti-DNA-POD antibody reacts with the DNA component of the nucleosomes. After removal of unbound antibodies by washing, the amount of nucleosomes is quantified by the POD retained in the immunocomplex. POD is determined photometrically with ABTS® (2,2'-Azino-di[3-ethylbenzthiazolin-sulfonate]) as substrate.
Fold stimulation (FS=ODmax/ODveh), an indicator of apoptotic response, was determined for each compound tested. EC50 values were determined either specifically by data analysis software, or by estimates based on the effective concentration range of each compound (ECR=min. effective dose-min. dose to peak effect). These FS and EC50 values for the tested compounds are listed above in Table 3.
as §2
Based on the data obtained from the DNA fragmentation tests in Tables 4 and 5, fold stimulations values for those compounds are also calculated at 100 μM by dividing the optical densities obtained at 100 μM by the optical densities of the control. Based on the data in Tables 4 and 5, fold stimulation values of 3.9 and 2.1 for the compounds of Examples 8 and 9 are obtained, accordingly.

[6] = system: colonic polyps; conditions: cited from earlier work
[7] = Homo sapiens, SW480, 48 h, 100 μM, OD at 100 μM divided by OD of control, read-out: fold stimulation calculated at 100 μM from Tables 4 and 5
[8] = Homo sapiens, SW480, 100 μM, FS=ODmax/ODveh, fold stimulation, SW-480, 48 hrs, read-out: DNA Fragmentation FS (100 μM)

| inhibition at 100 µM [2] | Compound | activity at 0.01 µM [3] | activity at 0.1 µM [3] | activity at 1 µM [3] | activity at 10 µM [3] | activity at 100 µM [3] | inhibition at 100 µM [4] | Apoptosis Level (Mean OD Value ± SD) ([5]; 0.01 μM) | Apoptosis Level (Mean OD Value ± SD) ([5]; 0.1 μM) | Apoptosis Level (Mean OD Value ± SD) ([5]; 1 μM) | Apoptosis Level (Mean OD Value ± SD) ([5]; 10 μM) | Apoptosis Level (Mean OD Value ± SD) ([5]; 100 μM) | fold induction at 100 µM [5, 7] | fold induction at 100 µM [5, 8] | EC50 ([5]; Homo sapiens, SW480) | further results |
| --- | --- | --- | --- | --- | --- | --- | --- | --- | --- | --- | --- | --- | --- | --- | --- | --- |
| < 25% | CC1=C(CCO)c2cc(F)ccc2/C1=C\c1ccc(S(C)(=O)=O)cc1 [Example 9, (Z)-5-Fluoro-2-Methyl-1-(4-Methylsulfonylbenzylidene)-1H-3-Indenyl-(2-Hydroxy)Ethane] | 107 ± 7.4% | 111 ± 16.7% | 106 ± 6.3% | 103 ± 9.3% | 21 ± 0.65% | 84% | 0.272 ± 0.033 OD | 0.312 ± 0.05 OD | 0.296 ± 0.052 OD | 0.261 ± 0.022 OD | 0.742 ± 0.095 OD | 2.1 | 6.5 | 89.3 µM | Morphology % Apoptotic Cells 100 μM ([1]; 100 μM): 98%; activity at 0.05 µM ([3]; 0.05 μM): 108 ± 9.6%; activity at 0.5 µM ([3]; 0.5 μM): 114 ± 18.1%; activity at 5 µM ([3]; 5 μM): 100 ± 8.3%; activity at 50 µM ([3]; 50 μM): 35 ± 0.246%; IC50 ([4]; SW480, SW-480, obtained graphically from dose response): 29.2 µM; Apoptosis Level (Mean OD Value ± SD) ([5]; 0.05 μM): 0.285 ± 0.03 OD; Apoptosis Level (Mean OD Value ± SD) ([5]; 0.5 μM): 0.258 ± 0.03 OD; Apoptosis Level (Mean OD Value ± SD) ([5]; 5 μM): 0.239 ± 0.024 OD; Apoptosis Level (Mean OD Value ± SD) ([5]; 50 μM): 0.259 ± 0.068 OD |
| – | CC1=C(CC(=O)O)c2cc(F)ccc2/C1=C\c1ccc([S+](C)[O-])cc1 (stereo not drawn) [sulindac] | – | – | – | – | – | – | – | – | – | – | – | – | – | – | gastric side effects ([6]; chronic administration, high cancer-risk patients): causes gastric side effects in many such patients; effect on colonic polyps ([6]; patients): Polyps virtually disappear |
| – | CC1=C(CC(=O)O)c2cc(F)ccc2/C1=C\c1ccc(S(C)(=O)=O)cc1 [Exisulind, reference compound] | – | – | – | – | – | – | – | – | – | – | – | – | – | 425 µM | Morphology % Apoptotic Cells (@540 μM) ([1]; 540 μM): 48%; fold induction at 700 µM ([5]; Homo sapiens, SW480, 700 μM, FS=ODmax/ODveh, fold stimulation, SW-480, 48 hrs): 3.4 |
| 70% | CSc1ccc(/C=C2/C(C)=C(CCO)c3cc(F)ccc32)cc1 [Example 1, (Z)-5-Fluoro-2-Methyl-1-(4-Methylthio-Benzylidene)-1H-3-Indenyl-(2-Hydroxy)Ethane] | – | – | – | – | – | 71% | – | – | – | – | – | – | 4.9 | – | – |
| – | COc1cc(/C=C2/C(C)=C(CCO)c3cc(F)ccc32)cc(OC)c1OC [Example 8, (Z)-5-Fluoro-2-Methyl-1-(3,4,5-Trimethoxybenzylidene)-1H-3-Indenyl-(2-Hydroxy)Ethane] | 109 ± 9.2% | 105 ± 5.5% | 103 ± 6.6% | 24 ± 16% | 5 ± 0.6% | 93% | 0.272 ± 0.013 OD | 0.277 ± 0.044 OD | 0.304 ± 0.044 OD | 0.355 ± 0.049 OD | 0.974 ± 0.124 OD | 3.9 | 5.4 | 20 µM | activity at 0.001 µM ([3]; 0.001 μM): 101 ± 4.6%; activity at 500 µM ([3]; 500 μM): 9 ± 3.4%; Apoptosis Level (Mean OD Value ± SD) ([5]; 0.001 μM): 0.252 ± 0.017 OD; Apoptosis Level (Mean OD Value ± SD) ([5]; 500 μM): 0.76 ± 0.113 OD |
